Results published in patent publication US20190203212A1, “INDUCIBLE DNA BINDING PROTEINS AND GENOME PERTURBATION TOOLS AND APPLICATIONS THEREOF” (Massachusetts Institute of Technology, priority 2013, published 2019).

Test system: Grm2
Assay: AAV-delivered TALE / LITE modulation of Grm2 mRNA in primary cortical neurons, qRT-PCR
Assay type: cell-based, mouse
Settings: neurons expressing only one LITE component
Description: FIG. 18 depicts metabotropic glutamate receptor 2 (mGlur2) LITE activity in mouse cortical neuron culture. A mGluR2 targeting LITE was constructed via the plasmids pAAV-human Synapsin I promoter (hSyn)-HA-TALE(mGluR2)-CIB1 and pAAV-hSyn-CRY2PHR-VP64-2A-GFP. These fusion constructs were then packaged into adeno associated viral vectors (AAV). Additionally, AAV carrying hSyn-TALE-VP64-2A-GFP and GFP only were produced. Embryonic mouse (E16) cortical cultures were plated on Poly-L-lysine coated 24 well plates. After 5 days in vitro neural cultures were co-transduced with a mixture of TALE(mGluR2)-CIB1 and CRY2PHR-VP64 AAV stocks. Control samples were transduced with either TALE(mGluR2)-VP64 AAV or GFP AAV. 6 days after AAV transduction, experimental samples were stimulated using either of two light pulsing paradigms: 0.5 s per min and 0.25 sec per 30 sec. Neurons were stimulated for 24 h and harvested for qPCR analysis. All mGluR2 expression levels were normalized to the respective stimulated GFP control. […]
Light stimulation was started 6 days after AAV transduction (DIV 11) with an intensity of 5 mW/cm^2, duty cycle of 0.8% (250 ms pulses at 0.033 Hz or 500 ms pulses at 0.016 Hz), 466 nm blue light for 24 h unless indicated otherwise in figure legends. […] Relative mRNA levels were measured by quantitative real-time PCR (qRT-PCR) using TaqMan probes as described above for Neuro 2a cells. […]

CRY2PHR-VP64: LITE effector component alone
Grm2 mRNA versus GFP controls, single LITE component: did not significantly affect transcription
